Source: the NIST ThermoML archive (doi:10.1021/je800727f)

Details: for viscosity / mass density: 101.33 kPa, Liquid; for viscosity: dissipative quartz crystal microbalance from KSV (QCMZ500)

C[n+]1ccn(CCO)c1.F[B-](F)(F)F [1-(2-hydroxyethyl)-3-methylimidazolium tetrafluoroborate]
Details | mass density [kg/m3] | surface tension liquid-gas [mN/m] | viscosity [mPa·s]
293.15 K | – | – | 1554
298.15 K | 1308 | – | 974
303.15 K | 1304.7 | – | –
308.15 K | 1301.4 | – | 477
313.15 K | 1296.1 | – | –
318.15 K | 1294.7 | – | 257
323.15 K | 1291.5 | – | –
328.15 K | 1288.3 | – | 156
572 K | – | 64.7 | –
577.78 K | – | 64.6 | –
587.55 K | – | 64 | –
597.81 K | – | 63.5 | –
607.58 K | – | 62.7 | –
626.51 K | – | 61.7 | –
645.35 K | – | 59.9 | –
665.48 K | – | 59.1 | –
684.42 K | – | 57.5 | –
703.95 K | – | 56.4 | –
725.28 K | – | 55.4 | –
743.71 K | – | 53.6 | –

CCCCCCCC[n+]1ccn(C)c1.F[B-](F)(F)F [1-methyl-3-octylimidazolium tetrafluoroborate]
Details | mass density [kg/m3] | surface tension liquid-gas [mN/m] | viscosity [mPa·s]
293.15 K | – | – | 413
298.15 K | 1100.5 | – | 325
308.15 K | 1093.7 | – | 205
318.15 K | 1087.1 | – | 129
328.15 K | 1080.5 | – | 86
570.95 K | – | 32.7 | –
586.35 K | – | 32.4 | –
606.62 K | – | 31.3 | –
625.26 K | – | 30.2 | –
646.29 K | – | 28.1 | –
665.98 K | – | 27.7 | –
685.41 K | – | 27.2 | –
704.75 K | – | 25.3 | –
724.78 K | – | 24.5 | –
743.71 K | – | 23.7 | –
